Reference: ChEMBL document CHEMBL4507316 (2021)

Columns and labels:
[1] = molecular target: 5-hydroxytryptamine receptor 2A (Homo sapiens, UniProt P28223); assay: GPCRScan assay: inhibition of 5-HT2A; parameters: radioligand conc. used [nm] 1.2 – 2.4, parental cells HEKT
[2] = molecular target: Cyclin-dependent kinase 2/cyclin E (Homo sapiens) (UniProt P24864+P24941+O96020); assay: CDK2/CycE ProQinase selectivity panel; format: protein-complex assay; conditions: Compound concentration 1.0 uM
[3] = molecular target: Casein kinase II subunit alpha' (Homo sapiens) (UniProt P19784); assay: CK2-alpha2 ProQinase selectivity panel; conditions: Compound concentration 1.0 uM
[4] = molecular target: Receptor-type tyrosine-protein kinase FLT3 (Homo sapiens) (UniProt P36888); assay: FLT3 wt ProQinase selectivity panel; conditions: Compound concentration 1.0 uM
[5] = molecular target: Inhibitor of nuclear factor kappa-B kinase subunit alpha (Homo sapiens) (UniProt O15111); assay: IKK-alpha ProQinase selectivity panel; conditions: Compound concentration 1.0 uM
[6] = molecular target: Tyrosine-protein kinase JAK2 (Homo sapiens) (UniProt O60674); assay: JAK2 ProQinase selectivity panel; conditions: Compound concentration 1.0 uM
[7] = tested on: Leucine-rich repeat serine/threonine-protein kinase 2 (Homo sapiens), Q5S007 [I2020T]; assay: LRRK2 I2020T ProQinase selectivity panel; conditions: Compound concentration 1.0 uM
Leucine-rich repeat serine/threonine-protein kinase 2 (Homo sapiens), Q5S007 [I2020T], sequence (Q5S007 whole entry I2020T): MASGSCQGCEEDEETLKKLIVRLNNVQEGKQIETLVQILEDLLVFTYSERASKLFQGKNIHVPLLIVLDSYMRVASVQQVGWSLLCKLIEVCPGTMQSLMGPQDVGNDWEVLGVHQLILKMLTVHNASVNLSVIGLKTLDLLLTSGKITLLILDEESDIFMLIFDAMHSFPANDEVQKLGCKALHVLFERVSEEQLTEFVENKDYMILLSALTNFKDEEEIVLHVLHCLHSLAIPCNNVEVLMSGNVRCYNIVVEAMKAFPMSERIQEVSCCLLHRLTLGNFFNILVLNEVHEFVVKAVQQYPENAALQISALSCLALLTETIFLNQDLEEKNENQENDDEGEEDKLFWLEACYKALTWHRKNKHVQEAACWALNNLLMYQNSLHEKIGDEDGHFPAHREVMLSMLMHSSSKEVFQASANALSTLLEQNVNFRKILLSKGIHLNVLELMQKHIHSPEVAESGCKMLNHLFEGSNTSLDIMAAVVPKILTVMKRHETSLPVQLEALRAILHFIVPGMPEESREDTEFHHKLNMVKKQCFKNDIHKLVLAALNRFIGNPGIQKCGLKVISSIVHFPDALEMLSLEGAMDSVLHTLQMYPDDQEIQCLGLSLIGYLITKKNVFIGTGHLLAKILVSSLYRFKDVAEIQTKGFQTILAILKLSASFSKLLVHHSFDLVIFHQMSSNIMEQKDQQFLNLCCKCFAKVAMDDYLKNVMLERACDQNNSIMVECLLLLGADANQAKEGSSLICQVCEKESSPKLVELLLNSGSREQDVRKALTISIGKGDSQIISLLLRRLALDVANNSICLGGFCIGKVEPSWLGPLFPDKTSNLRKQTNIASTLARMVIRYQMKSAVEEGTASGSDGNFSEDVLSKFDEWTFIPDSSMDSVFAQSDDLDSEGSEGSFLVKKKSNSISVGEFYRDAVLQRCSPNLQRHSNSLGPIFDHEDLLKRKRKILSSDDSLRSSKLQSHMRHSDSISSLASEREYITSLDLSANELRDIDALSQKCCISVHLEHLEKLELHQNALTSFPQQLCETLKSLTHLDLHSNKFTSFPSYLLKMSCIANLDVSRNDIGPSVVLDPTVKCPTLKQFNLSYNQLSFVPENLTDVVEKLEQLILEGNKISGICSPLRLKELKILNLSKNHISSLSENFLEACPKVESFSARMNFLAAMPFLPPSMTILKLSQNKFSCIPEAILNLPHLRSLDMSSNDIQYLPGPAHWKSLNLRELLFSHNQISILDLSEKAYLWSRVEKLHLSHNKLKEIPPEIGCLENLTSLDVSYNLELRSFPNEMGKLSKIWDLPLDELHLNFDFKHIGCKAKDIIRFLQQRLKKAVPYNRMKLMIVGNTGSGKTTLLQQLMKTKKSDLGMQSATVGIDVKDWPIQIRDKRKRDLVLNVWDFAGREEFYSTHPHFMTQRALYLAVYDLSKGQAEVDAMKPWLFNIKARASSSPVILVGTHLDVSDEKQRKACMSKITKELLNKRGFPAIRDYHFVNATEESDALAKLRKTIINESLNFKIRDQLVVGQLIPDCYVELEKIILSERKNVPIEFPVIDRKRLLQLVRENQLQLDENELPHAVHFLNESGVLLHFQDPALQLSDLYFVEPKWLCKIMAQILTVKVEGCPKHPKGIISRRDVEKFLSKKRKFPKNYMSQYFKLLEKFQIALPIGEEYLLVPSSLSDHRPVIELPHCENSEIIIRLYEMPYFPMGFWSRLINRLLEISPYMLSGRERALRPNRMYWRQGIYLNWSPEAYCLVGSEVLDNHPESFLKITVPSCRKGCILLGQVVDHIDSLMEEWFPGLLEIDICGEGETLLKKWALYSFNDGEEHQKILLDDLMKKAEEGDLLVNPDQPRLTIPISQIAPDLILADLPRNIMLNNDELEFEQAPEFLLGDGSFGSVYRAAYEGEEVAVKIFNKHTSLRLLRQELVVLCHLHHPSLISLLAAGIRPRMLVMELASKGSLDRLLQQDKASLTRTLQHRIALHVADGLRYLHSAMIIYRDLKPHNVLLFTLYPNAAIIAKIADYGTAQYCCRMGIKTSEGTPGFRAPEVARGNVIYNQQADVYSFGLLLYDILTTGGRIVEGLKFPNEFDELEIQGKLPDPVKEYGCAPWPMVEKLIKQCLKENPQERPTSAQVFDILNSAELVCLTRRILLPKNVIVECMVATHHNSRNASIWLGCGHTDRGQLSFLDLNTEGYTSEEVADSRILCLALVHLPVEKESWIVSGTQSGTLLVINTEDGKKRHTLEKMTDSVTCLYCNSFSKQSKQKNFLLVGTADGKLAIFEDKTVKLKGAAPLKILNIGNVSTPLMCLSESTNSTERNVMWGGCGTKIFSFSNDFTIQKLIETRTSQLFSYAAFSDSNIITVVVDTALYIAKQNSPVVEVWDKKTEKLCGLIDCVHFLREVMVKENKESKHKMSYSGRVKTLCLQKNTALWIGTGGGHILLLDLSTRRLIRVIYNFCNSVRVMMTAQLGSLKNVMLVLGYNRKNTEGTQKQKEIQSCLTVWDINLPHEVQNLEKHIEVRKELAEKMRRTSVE

[8] = molecular target: Dual specificity mitogen-activated protein kinase kinase 1 (Homo sapiens) (UniProt Q02750); assay: MEK1 ProQinase selectivity panel; conditions: Compound concentration 1.0 uM
[9] = molecular target: Serine/threonine-protein kinase 3 (Homo sapiens) (UniProt Q13188); assay: MST2 ProQinase selectivity panel; conditions: Compound concentration 1.0 uM
[10] = molecular target: Platelet-derived growth factor receptor alpha (Homo sapiens) (UniProt P16234); assay: PDGFR-alpha wt ProQinase selectivity panel; conditions: Compound concentration 1.0 uM
[11] = molecular target: Protein kinase C epsilon type (Homo sapiens) (UniProt Q02156); assay: PKC-epsilon ProQinase selectivity panel; conditions: Compound concentration 1.0 uM
[12] = molecular target: SRSF protein kinase 1 (Homo sapiens) (UniProt Q96SB4); assay: SRPK1 ProQinase selectivity panel; conditions: Compound concentration 1.0 uM
[13] = molecular target: BDNF/NT-3 growth factors receptor (Homo sapiens) (UniProt Q16620); assay: TRK-B ProQinase selectivity panel; conditions: Compound concentration 1.0 uM
[14] = molecular target: Vascular endothelial growth factor receptor 2 (Homo sapiens) (UniProt P35968); assay: VEGF-R2 ProQinase selectivity panel; conditions: Compound concentration 1.0 uM
Vascular endothelial growth factor receptor 2 (Homo sapiens), sequence (P35968 whole entry): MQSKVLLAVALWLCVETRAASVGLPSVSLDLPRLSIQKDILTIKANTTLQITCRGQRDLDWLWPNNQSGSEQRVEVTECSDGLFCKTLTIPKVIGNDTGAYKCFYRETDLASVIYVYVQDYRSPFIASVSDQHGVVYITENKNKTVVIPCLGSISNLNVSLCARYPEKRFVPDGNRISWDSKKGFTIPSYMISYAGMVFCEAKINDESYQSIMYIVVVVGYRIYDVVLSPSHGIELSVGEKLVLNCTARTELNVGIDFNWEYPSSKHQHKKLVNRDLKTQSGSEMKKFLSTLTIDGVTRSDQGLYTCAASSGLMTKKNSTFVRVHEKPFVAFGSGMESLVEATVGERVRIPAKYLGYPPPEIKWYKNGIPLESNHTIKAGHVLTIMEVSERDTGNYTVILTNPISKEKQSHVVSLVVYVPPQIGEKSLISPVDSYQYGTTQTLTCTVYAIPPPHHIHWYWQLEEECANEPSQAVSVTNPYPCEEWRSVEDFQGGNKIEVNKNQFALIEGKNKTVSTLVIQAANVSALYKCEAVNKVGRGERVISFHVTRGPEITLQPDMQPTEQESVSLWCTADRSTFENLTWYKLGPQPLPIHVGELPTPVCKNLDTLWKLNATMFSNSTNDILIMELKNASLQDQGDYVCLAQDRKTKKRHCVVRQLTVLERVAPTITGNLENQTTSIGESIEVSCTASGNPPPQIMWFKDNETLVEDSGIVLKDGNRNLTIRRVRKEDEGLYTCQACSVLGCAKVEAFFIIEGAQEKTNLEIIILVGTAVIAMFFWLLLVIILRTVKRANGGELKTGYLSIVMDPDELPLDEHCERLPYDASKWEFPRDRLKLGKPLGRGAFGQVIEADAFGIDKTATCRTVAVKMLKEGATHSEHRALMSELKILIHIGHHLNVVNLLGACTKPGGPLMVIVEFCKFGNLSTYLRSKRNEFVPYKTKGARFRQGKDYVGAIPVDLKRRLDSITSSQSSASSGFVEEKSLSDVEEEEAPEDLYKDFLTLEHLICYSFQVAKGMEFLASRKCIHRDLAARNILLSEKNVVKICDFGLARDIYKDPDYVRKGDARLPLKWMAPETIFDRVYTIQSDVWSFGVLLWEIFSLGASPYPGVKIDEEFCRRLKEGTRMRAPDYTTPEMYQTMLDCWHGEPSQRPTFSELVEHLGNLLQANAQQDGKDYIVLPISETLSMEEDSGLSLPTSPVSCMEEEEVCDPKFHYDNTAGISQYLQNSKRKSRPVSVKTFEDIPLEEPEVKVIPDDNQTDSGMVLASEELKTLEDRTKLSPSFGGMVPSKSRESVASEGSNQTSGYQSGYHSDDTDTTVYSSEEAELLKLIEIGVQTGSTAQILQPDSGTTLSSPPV

[15] = molecular target: 5-hydroxytryptamine receptor 7 (Homo sapiens) (UniProt P34969); conditions: Compound concentration 10.0 uM
5-hydroxytryptamine receptor 7 (Homo sapiens), sequence (P34969 whole entry): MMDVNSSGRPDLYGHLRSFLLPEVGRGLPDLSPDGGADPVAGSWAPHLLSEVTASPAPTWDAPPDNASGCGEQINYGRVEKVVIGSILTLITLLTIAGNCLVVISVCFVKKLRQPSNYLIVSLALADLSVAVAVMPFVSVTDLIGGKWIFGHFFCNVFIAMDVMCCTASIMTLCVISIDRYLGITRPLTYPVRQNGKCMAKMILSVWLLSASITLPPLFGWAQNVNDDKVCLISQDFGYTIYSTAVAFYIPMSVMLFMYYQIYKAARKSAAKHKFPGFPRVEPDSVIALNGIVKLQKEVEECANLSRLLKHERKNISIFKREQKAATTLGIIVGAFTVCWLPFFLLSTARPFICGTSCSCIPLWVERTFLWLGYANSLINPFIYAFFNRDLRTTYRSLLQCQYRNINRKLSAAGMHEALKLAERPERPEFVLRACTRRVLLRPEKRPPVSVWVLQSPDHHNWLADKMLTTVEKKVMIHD

[16] = molecular target: Mu-type opioid receptor (Homo sapiens) (UniProt P35372); conditions: Compound concentration 10.0 uM
[17] = molecular target: Alpha-2A adrenergic receptor (Homo sapiens) (UniProt P08913); conditions: Compound concentration 10.0 uM

5-hydroxytryptamine receptor 2A, sequence (P28223 whole entry): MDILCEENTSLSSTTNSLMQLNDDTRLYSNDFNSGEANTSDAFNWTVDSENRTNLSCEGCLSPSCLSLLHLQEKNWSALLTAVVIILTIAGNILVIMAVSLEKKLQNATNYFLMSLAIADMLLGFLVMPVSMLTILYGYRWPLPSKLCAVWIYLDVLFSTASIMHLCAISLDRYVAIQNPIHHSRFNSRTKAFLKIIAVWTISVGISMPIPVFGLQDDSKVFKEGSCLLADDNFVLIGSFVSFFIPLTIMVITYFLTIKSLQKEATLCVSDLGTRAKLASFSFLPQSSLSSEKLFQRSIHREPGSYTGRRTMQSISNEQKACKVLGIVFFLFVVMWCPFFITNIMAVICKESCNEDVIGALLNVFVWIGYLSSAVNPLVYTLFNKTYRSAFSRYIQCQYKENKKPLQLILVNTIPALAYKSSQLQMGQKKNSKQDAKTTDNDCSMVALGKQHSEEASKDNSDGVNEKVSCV

## O=C1c2ccc(Nc3ccc(F)cc3F)cc2CCc2ccc(OC[C@H](O)CO)cc21 [Skepinone-L]
[1]; read-out: Ki
  Ki: 3.71 µM
[1]; read-out: pKi (converted)
  Ki: 3.39 µM
[2]
  % Residual activity with Skepinone-L: 85%
[3]
  % Residual activity with Skepinone-L: 87%
[4]
  % Residual activity with Skepinone-L: 106%
[5]
  % Residual activity with Skepinone-L: 88%
[6]
  % Residual activity with Skepinone-L: 90%
[7]
  % Residual activity with Skepinone-L: 94%
[8]
  % Residual activity with Skepinone-L: 79%
[9]
  % Residual activity with Skepinone-L: 83%
[10]
  % Residual activity with Skepinone-L: 91%
[11]
  % Residual activity with Skepinone-L: 99%
[12]
  % Residual activity with Skepinone-L: 100%
[13]
  % Residual activity with Skepinone-L: 77%
[14]
  % Residual activity with Skepinone-L: 91%
[15]
  inhibition: -9.25%
[16]
  inhibition: 22.5%
[17]
  inhibition: 39.6%
